Experimental data: PubChem BioAssay (NCI)
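Following 48 hours of exposure in 96-well plates, responses at five concentrations were used to interpolate endpoints linearly. Here, GI50 denotes the concentration required for 50% inhibition of growth. At the TGI there is no net growth.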

Key:
Assay in all cases: growth of human tumour cells (NCI), 48 h
[1] = test system: ACHN renal
[2] = test system: NCI-H522 lung
[3] = test system: RPMI-8226 leukemia
[4] = test system: RXF 393 renal
[5] = test system: SW-620 colon
[6] = test system: UACC-257 melanoma
[7] = test system: UACC-62 melanoma
[8] = test system: SR leukemia
[9] = test system: UO-31 renal

SMILES | TGI [1] | TGI [2] | TGI [3] | TGI [4] | TGI [5] | TGI [6] | TGI [7] | TGI [8] | TGI [9] | GI50 [1] | GI50 [2] | GI50 [3] | GI50 [4] | GI50 [8] | GI50 [5] | GI50 [7] | GI50 [9]
COc1cccc(OC/C(N=Cc2ccncc2)=N/NC(=O)c2ccncc2)c1 | > 100 µM | > 100 µM | > 100 µM | > 100 µM | > 100 µM | > 100 µM | > 100 µM |  |  |  |  |  |  |  |  |  | 
CCCCN(CCCC)C1=Nc2ccccc2-n2c(nnc2C(=O)OCC)C1 | > 100 µM | > 100 µM | > 100 µM | 77.4 µM | > 100 µM | 90 µM | > 100 µM | 56.3 µM | > 100 µM |  |  |  |  |  |  |  | 
COc1c(-c2ccc(F)cc2)oc2cc(O)cc(O)c2c1=O | 93.4 µM | 44.2 µM | > 100 µM |  | > 100 µM |  |  | > 100 µM | 42.1 µM |  |  |  |  |  |  |  | 
COC(=O)c1c(C)cccc1C1CN=NC12Cc1cccc(C)c1C2=O (centres undefined) | > 100 µM | 75.7 µM | > 100 µM | > 100 µM | > 100 µM | 57.7 µM | 74 µM | > 100 µM | 67.7 µM |  |  |  |  |  |  |  | 
COC(C/C=C\C=C\CC/C=C/CC(C)/C=C/C(=C\C(=O)O)CC(=O)O)/C(C)=C\C=C(/C)C(=O)O (centres undefined) |  | > 100 µM | > 100 µM |  | > 100 µM | > 100 µM | > 100 µM | > 100 µM | > 100 µM |  |  |  |  |  |  |  | 
CCC(=O)Nc1ccc(N2C(=O)/C(=C/c3ccc(O)c(OC)c3)N=C2c2ccccc2)cc1 | 89.9 µM | > 100 µM | > 100 µM | 48.4 µM | > 100 µM | 71.5 µM | > 100 µM | > 100 µM | > 100 µM |  |  |  |  |  |  |  | 
O=c1[nH]nc(N/N=C\c2ccc(Cl)cc2)c2ccccc12 | 37.8 µM | 48 µM | > 100 µM | 56.2 µM | > 100 µM | 49.3 µM | 39.4 µM | 58.2 µM | 38.7 µM |  |  |  |  |  |  |  | 
C/C(=C\COP(=O)(O)OP(=O)(O)O)CC/C=C(\C)CNc1ccccc1 | > 50 µM | > 50 µM | 0.0403 µM | > 50 µM | > 50 µM | > 50 µM | > 50 µM |  | > 50 µM |  |  |  |  |  |  |  | 
C=C1CN=C(Nc2ccc(F)cc2F)S1 | > 100 µM |  | > 100 µM |  | > 100 µM | > 100 µM |  | > 100 µM | > 100 µM |  |  |  |  |  |  |  | 
COc1ccc(C(=O)/C=C/c2ccc(OCCCOc3ccc(/C=C/C(=O)c4ccc(OC)c(OC)c4)cc3)cc2)cc1OC | > 100 µM |  | > 100 µM | > 100 µM | > 100 µM | > 100 µM | > 100 µM | > 100 µM | > 100 µM |  |  |  |  |  |  |  | 
CCOC(=O)COC1=Nc2cc(OC)c(OC)c3nc(Cl)cc(c23)C1=O | 3.02 µM | 3.25 µM | > 100 µM | 3.34 µM | > 21.6 µM | 3.21 µM | 3.17 µM | > 21.5 µM | 4.13 µM |  |  |  |  |  |  |  | 
COc1ccc(C2C3=CONC3CC3CCCCC32)cc1 (centres undefined) | > 100 µM | > 100 µM | > 100 µM |  | > 100 µM | > 100 µM | > 100 µM | > 100 µM | > 100 µM |  |  |  |  |  |  |  | 
Cc1sc2nc3n(sc4nc5sc(C)c(C)c5c(=O)n43)c(=O)c2c1C |  | 32 µM | > 100 µM |  | > 100 µM | > 100 µM | 87.6 µM | > 100 µM | > 100 µM |  |  |  |  |  |  |  | 
S=c1oc(CCCCCCCCc2nn(CNc3ccc(Cl)cc3)c(=S)o2)nn1CNc1ccc(Cl)cc1 | > 100 µM | > 100 µM | > 100 µM | > 100 µM | > 100 µM | > 100 µM | > 100 µM |  | > 100 µM |  |  |  |  |  |  |  | 
COc1ccc(-c2cc(-c3ccc(OC)c(OC)c3)nc(SCCCC(=O)NO)n2)cc1 | 2.29 µM | 5.09 µM | 6.21 µM | 2.5 µM | 10.7 µM |  | 2.68 µM | 15.5 µM | 1.44 µM | 0.456 µM | 0.787 µM | 0.752 µM | 0.587 µM | 0.552 µM | 0.906 µM | 1.14 µM | 0.301 µM
CC(=O)NCC1OC2COC(c3ccccc3)OC2C2N=C(c3ccccc3)OC12 (centres undefined) | > 100 µM |  | 89.1 µM | > 100 µM | > 100 µM | > 100 µM | > 100 µM |  | > 100 µM |  |  |  |  |  |  |  | 
CCCOC1OC(CS(=O)(=O)O)C(OC(C)=O)C(OC(C)=O)C1OC(C)=O (centres undefined) |  |  | > 100 µM | > 100 µM | > 100 µM | > 100 µM | > 100 µM | > 100 µM | > 100 µM |  |  |  |  |  |  |  | 
Nc1cc2ncnc(Nc3cccc(Br)c3)c2cn1 | > 100 µM |  | > 100 µM | > 100 µM | > 100 µM | > 100 µM | > 100 µM | > 100 µM | > 100 µM |  |  |  |  |  |  |  | 
Cc1c(Cl)c(=O)oc2cc(OCC(O)COC(C)C)ccc12 (centres undefined) | > 100 µM | > 100 µM | > 100 µM |  | > 100 µM | > 100 µM | > 100 µM | 73.2 µM | > 100 µM |  |  |  |  |  |  |  | 
O=c1oc2ccccc2c(O)c1C(c1ccc(O)cc1)c1c(O)c2ccccc2oc1=O | > 100 µM | 62.8 µM |  |  | > 100 µM | > 100 µM | > 100 µM |  | > 100 µM |  |  |  |  |  |  |  | 
COc1ccc(Nc2nc(NNC(=O)Cc3ccccc3)nc(NNC(=O)c3ccncc3)n2)cc1 | > 10 µM | > 10 µM |  |  | > 10 µM | > 10 µM | 8.65 µM | > 10 µM | > 10 µM |  |  |  |  |  |  |  | 
O=C1c2ccccc2C2(c3ccc(Cl)cc3)N[C@@H]3CCCC[C@@H]3N12 (some centres undefined) | > 100 µM |  | > 100 µM | > 100 µM | > 100 µM | > 100 µM | > 100 µM | > 100 µM | > 100 µM |  |  |  |  |  |  |  | 
COc1ccc2c3c([nH]c2c1)-c1nc2ccccc2c(=O)n1CC3 | > 25 µM | > 25 µM | > 25 µM |  | > 25 µM | > 25 µM |  | > 25 µM | > 25 µM |  |  |  |  |  |  |  | 
